Data on 3 compounds can be found in patent US6416733B1, “Radiopharmaceuticals for imaging infection and inflammation” (Bristol-Myers Squibb Pharma Company, priority 1996, dated 2002).

For this assay, the target named is T1, PMN LTB4 receptor (Homo sapiens, UniProt Q15722).
T1 construct: endogenous in cells; host or cells: neutrophils (PMN) isolated from heparinized blood by ficoll gradient and dextran sedimentation
T1 sequence (Q15722 whole entry): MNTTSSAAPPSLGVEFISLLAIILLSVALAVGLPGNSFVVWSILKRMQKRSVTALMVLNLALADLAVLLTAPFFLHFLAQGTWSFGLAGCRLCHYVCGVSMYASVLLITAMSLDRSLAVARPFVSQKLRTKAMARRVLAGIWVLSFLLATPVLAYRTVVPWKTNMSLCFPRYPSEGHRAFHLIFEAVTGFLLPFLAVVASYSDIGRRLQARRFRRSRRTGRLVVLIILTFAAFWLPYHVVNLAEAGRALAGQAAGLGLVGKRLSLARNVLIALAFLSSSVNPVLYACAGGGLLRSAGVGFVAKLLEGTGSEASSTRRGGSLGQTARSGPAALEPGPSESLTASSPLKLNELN
The assay can be described thus: LTB4 Human Neutrophil (PMN) Binding Assay. To be noted: read-out: Ki, affinity for LTB4 (receptor). From the text: LTB4 Human Neutrophil (PMN) Binding Assay
LTB4 for the PMN LTB4 receptor.
Regarding `O=C(CCCCCOc1cc(-c2ccc3c(c2)OCO3)cc(-c2ccccc2)n1)NC(Cc1ccc(O)cc1)C(=O)O` (stereo not drawn) [Compound III], the Ki was determined as 41 nM.

Regarding `CCc1cc(-c2ccc(F)cc2)c(O)cc1OCCCCC(C)(C)CNC(=O)c1ccc(N/N=C/c2ccccc2)nc1` [IIa], the Ki worked out at 8 nM.

As for `O=C(CCCCCOc1cc(-c2ccc3c(c2)OCO3)cc(-c2ccccc2)n1)NC(Cc1ccc(OCCCNC(=O)c2ccc(N/N=C/c3ccccc3S(=O)(=O)O)nc2)cc1)C(=O)O` (stereo not drawn) [Reagent IV], the Ki turned out to be 52 nM.

The term Ki denotes the equilibrium dissociation constant of an inhibitor or competing ligand from its target.
